Results reported in patent US20100003287A1, “Compositions and Methods Relating to Treatment of Cancer and Infectious Diseases” (THE PROVOST, FELLOWS AND SCHOLARS OF THE COLL. OF THE HOLY …, priority 2005, published 2010).

Experiments:
[1] = tested on: B16 tumour cells; assay: Direct tumour therapy with CpG and Celecoxib; assay type: in vivo, C57BL/6 mice; details: CpG 20 μg, Celecoxib 500 μg or both s.c. at tumour site, days 3, 5 and 7
Protocol: C57BL/6 mice were challenged with 2×10^5 tumour cells s.c. and injected s.c. on days 3, 5 and 7 with either CpG (10 or 20 μg), the Cox-2 inhibitor Celecoxib (100 or 500 μg) or a combination of both at the tumour site. Mice were routinely monitored for tumour growth and survival. Tumour size was measured in two dimensions by callipers and determined by the following formula: (width^2×length)×π/6 where width is the lesser value. Mice were killed when tumour a length measured greater than 15 mm.
Mice were routinely monitored for tumour growth (FIG. 19).
Tumour volumes were routinely monitored (FIG. 20).
C57BL/6 mice were challenged with 2×10^5 tumour cells s.c. and injected s.c. on days 3, 5 and 7 with either CpG (20 μg), the Cox-2 inhibitor Celecoxib (500 μg) or a combination of both at the tumour site. Mice were routinely monitored for tumours and survival (FIG. 21).

[2] = tested on: PGE2 production by dendritic cells; assay: TLR agonist induced PGE2 production by DC (ELISA); assay type: cell-based; details: 24 hours
Protocol: Bone marrow-derived dendritic cells (DC) were stimulated in vitro with CpG (5 μg) or the ERK inhibitor, U0126 (5 μM), or both for 24 hours. Supernatants were removed and PGE2 concentrations determined by ELISA. **p<0.01 CpG+p38 inhibitor versus CpG by ANOVA (FIG. 25).
Bone marrow-derived DC were stimulated with CpG (5 μg) alone or in the presence of the Cox-2 inhibitor, NS-398. After 24 hours, supernatants were removed and concentrations of PGE2 (FIG. 26(a)) were determined by ELISA. *p<0.05 CpG+p38 inhibitor versus CpG by ANOVA.
Supernatants were removed and PGE2 concentrations determined by ELISA. *p<0.05 CpG+p38 inhibitor versus CpG by ANOVA (FIG. 27).

[3] = tested on: IFN-gamma- and IL-10-secreting T cells; assay: DC transfer experiment (KLH, CpG and inhibitors), T cell responses in vivo; set-up: species or system C57BL/6 mice; details: DC with KLH 5 μg, CpG 5 μg and inhibitors (NS-398 5 μM, SB203580 1 μM, U0126 5 μM) into footpad; day 5 cells restimulated with KLH
Protocol: 2.5×10^5 treated cells were injected into each footpad. Popliteal lymph nodes and spleens were removed after 5 days, and single cell suspensions were restimulated with KLH (2, 10, 50 μg/ml). S/N were removed after 3 days, and aliquots were measured for IFN-gamma and IL-10 by ELISA.
2.5×10^5 treated cells were injected into each footpad of 57BL-6 mice. Popliteal lymph nodes and spleens were removed after 5 days, and single cell suspensions were restimulated with KLH (2, 10, 50 μg/ml). Supernatants were removed after 3 days, and IFN-gamma and IL-10 concentrations quantified by ELISA (FIG. 13).

[4] = tested on: bone marrow-derived DC; assay: CpG-stimulated DC with Cox-2 inhibitor NS-398, cytokine ELISA; assay type: cell-based, C57BL/6 mice
Protocol: (§1) Bone-marrow derived immature DC (BMDC) were generated by cultivation of extracted bone marrow cells with GM-CSF (40 ng/ml) for 10 days. BMDC from either BALB/c or C57BL/6 mice were incubated with 1 ng/ml-10 μg/ml of the TLR agonists, Pam3CSK4, Zymosan, LPS, Flagellin, PolylC, CpG-OCDN or medium only.

[5] = tested on: bone marrow-derived DC; assay: CpG-stimulated DC with Cox-2 inhibitor NS-398, cytokine mRNA RT-PCR; assay type: cell-based, C57BL/6 mice
[6] = tested on: CD80 on CD11c+ DC; assay: CD80 expression on DC (cytofluorometric analysis); assay type: cell-based; details: HSP70 vaccine 5 mg/ml, NS398 5 mM, 24 hours, gated on CD11c+
Protocol: Bone marrow derived DC were incubated with medium only (Control), HSP70 vaccine (5 mg/ml), the Cox-2 inhibitor NS398 (5 mM), HSP70 and Cox-2 inhibitor or LPS (10 ng/ml). After 24 hours cells were labelled with anti-CD80 and CD11C antibodies and cytofluorometric analysis performed. Results represent mean fluorescence intensity (MFI) on cells that were gated on the CD11c+ DC population (FIG. 24).

[7] = tested on: bone marrow-derived DC; assay: Cytokines from DC treated with B16 tumour vaccine, CpG and p38 inhibitor (ELISA); assay type: cell-based; details: DC with heat shocked and irradiated B16 cells 4 hours, CpG 5 μg, SB 203580 5 μM, 24 hours
Protocol: Supernatants were removed after 24 hours and IL-10, IL-12p40, IL-12p70 and IL-23 concentrations were determined by ELISA. *p<0.05; ***p<0.0001, CpG+p38 inhibitor versus GpG by ANOVA.

[8] = tested on: Bordetella pertussis; assay: Acellular pertussis vaccine, B. pertussis aerosol challenge, lung CFU counts; assay type: in vivo; details: mice, i.p. 0 and 4 weeks, 0.02 human dose vaccine, CpG 5 μg, SB203580 50 μM; aerosol challenge 2 weeks later
[9] = tested on: B16 tumour cells; assay: Therapeutic DC vaccine pulsed with B16 cells with or without CpG and p38 inhibitor; assay type: in vivo, C57BL/6 mice; details: for protective efficacy of tumour vaccine (tumour volumes): 5×10^5 DC days 3, 10 and 17
Source text: Tumour growth was routinely monitored. Results represent tumour volumes for individual mice (FIG. 29).
Tumour growth was routinely monitored. Results represent tumour volumes for individual mice (FIG. 30).
Mice were routinely monitored for survival. Numbers in parentheses represent statistical difference versus control group (FIG. 31).

[10] = tested on: spleen mononuclear cells; assay: Spleen cell IFN-gamma and IL-10 after acellular pertussis vaccination; assay type: in vivo, mice; details: added to acellular pertussis vaccine with CpG 5 μg, SB203580 50 μM
[11] = tested on: CD4+ T cells from D011.10 OVA-TCR Tg mice; assay: In vitro activation of OVA-TCR T cells with modulated DC; assay type: cell-based, BALB/c mice; details: DC pulsed with OVA peptide 5 μg, CpG 10 μg alone or with SB203580 1 or 5 μM, 24 h; T cells:DC 10:1
Protocol: DC from BALB/c were incubated with OVA Class II peptide (5 μg). […] D011.10 OVA-TCR T cells were then added to the BMDC (10:1). Supernatants were removed after 3 and 11 days, and aliquots were measured for IL-10-and IFN-gamma by ELISA.
Bone marrow-derived DC from BALB/c were incubated with OVA Class II peptide (5 μg). […] Purified CD4+ T cells from D011.10 OVA-TCR Tg mice were stimulated with the DC (10:1) and supernatants were removed 3 days after antigen stimulation and IL-10 and IFNgamma quantified by ELISA (FIG. 12).

[12] = tested on: bone marrow-derived DC; details: for IL-10 production from CpG-ODN- or LPS-stimulated DC: inhibitor 1 h (U0126 1.25-5 μM, SB203580 0.1-10 μM) before CpG-ODN 5 μg/ml or LPS 100 ng/ml, 24 h; for IL-12p70 production from TLR ligand-stimulated DC: inhibitor pre-incubation, LPS or CpG-ODN
Protocol: as §1
DC were pre-incubated for 1 h with the MEK 1/2 inhibitor (U0126) and then incubated for 15 min with medium only or with Pam3Cys, Zymosan, LPS, Flagellin, or CpG-ODN (1 or 5 μg/ml). […] DC were stimulated with medium only (0) or for 0.5, 1, 2, 4, 8 or 12 h with LPS (100 ng/ml). […] Cells treated with DMSO were used as negative controls.
Superntants were removed, and aliquots was measured for IL-10, IL-12p70 and IL-6 by ELISA (FIG. 11).

[13] = tested on: IL-1 beta in lungs; assay: Lung IL-1 beta after B. pertussis challenge of immunized mice; assay type: in vivo; details: added to acellular pertussis vaccine with CpG 5 μg; SB203580 50 μM; 4 hours after challenge
[14] = tested on: ERK; assay type: cell-based, mice
Protocol: In certain experiments, the ERK or p38 inhibitors were added 1 hr before the TLR ligands. Cell lysates were resolved by SDS-PAGE, transferred to nitrocellulose membranes and blotted with antibodies specific for phospho-p38 (pp38; Cell Signal Technology, Mass., USA), or phospho-ERK (pERK; Santa Cruz Biotechnologies, USA) and a horseradish peroxidase-linked secondary antibody. The nitrocellulose was stripped and probed with antibodies specific for total p38 or total ERK.

[15] = tested on: immature bone marrow-derived DC; assay: DC activation by TLR ligands, cytokine ELISA; details: 1 ng/ml-10 μg/ml TLR ligand, 24 h
Protocol: After 24 h, supernatants were removed and IL-10, IL-12p40 and IL-12p70 concentrations determined by ELISA. NT, not tested (FIG. 9).

[16] = tested on: draining lymph node cells; assay: Immunisation with KLH and TLR ligands, antigen-specific cytokine production by lymph node cells (ELISA); assay type: in vivo, BALB/c mice; details: s.c. KLH 5 μg alone or with adjuvant; lymph node cells day 7, KLH 50 μg/ml, 3 days
[17] = CpG 5 μg with inhibitor (U0126 5 μM or NS-398)
[18] = CpG 10 μg alone or with various concentrations of NS-398, 24 h
[19] = CpG 10 μg alone or with NS-398 1 or 10 μM, 24 h

Cc1ccc(-c2cc(C(F)(F)F)nn2-c2ccc(S(N)(=O)=O)cc2)cc1 [Celecoxib]
mice survived [1]: 20%

CS(=O)(=O)Nc1ccc([N+](=O)[O-])cc1OC1CCCCC1 [NS-398]
CpG-induced PGE2 production by dendritic cells [2, 17]: reverses | induction of IFN-gamma-secreting T cells (Th1) in vivo [3]: enhanced | induction of IL-10 secreting T cells in vivo [3]: suppressing | CpG-induced IL-10 production by dendritic cells ([4]; CpG 5 μg with NS-398, 24 h): reverses | IL-10 production by DC [4, 18]: suppressed | IL-12p40 (IL-12) production by DC [4, 18]: enhanced | IL-12p35 mRNA expression in DC [5, 19]: enhanced | IL-12p40 mRNA expression in DC [5, 19]: enhanced | IL-27p28 mRNA expression in DC [5, 18]: enhanced | CpG-induced IL-10 mRNA expression in DC ([5]; CpG 10 μg with NS-398, 24 h): suppressed | CD80 expression (mean fluorescence intensity) [6]: neither Cox-2 nor HSP70 alone enhanced

C[S+]([O-])c1ccc(-c2nc(-c3ccncc3)c(-c3ccc(F)cc3)[nH]2)cc1 (stereo not shown) [SB203580]
CpG-induced IL-10 production by dendritic cells [7]: reverses | IL-12 production by dendritic cells [7]: enhancing | IL-23 production [7]: not affected | protective efficacy against B. pertussis challenge [8]: significantly enhances | survival of mice ([9]; DC activated with killed whole B16 cells alone or with CpG 5 μg, SB 203580 5 μM, days 3, 10 and 17): enhances survival | protective efficacy of tumour vaccine (tumour volumes) ([9]; DC activated with killed whole B16 cells and CpG 5 μg, SB203580 5 μM): enhances | protective efficacy of tumour vaccine (tumour volumes) ([9]; DC activated with killed whole B16 cells, SB 203580 5 μM): enhances | CpG-induced PGE2 production by dendritic cells ([2]; DC treated with heat shocked and irradiated B16 cells 4 hours, CpG 5 μg, SB 203580 5 μM): reverses | induction of IFN-gamma-secreting T cells (Th1) in vivo [3]: enhanced | induction of IL-10 secreting T cells in vivo [3]: suppressing | IFN-gamma responses [10]: enhanced | IL-10 responses [10]: reduced | induction of IFN-gamma-secreting T cells [11]: enhanced | induction of IL-10 secreting T cells [11]: suppressed | IL-10 production from CpG-ODN- or LPS-stimulated DC [12]: inhibited | IL-12p70 production from TLR ligand-stimulated DC [12]: enhanced | local IL-1 beta in the lungs [13]: enhanced

N#CC(=C(/N)Sc1ccccc1N)/C(C#N)=C(\N)Sc1ccccc1N [U0126]
CpG-induced PGE2 production by dendritic cells [2, 17]: reverses | induction of IFN-gamma-secreting T cells (Th1) in vivo [3]: suppressed | induction of IL-10 secreting T cells in vivo [3]: suppressed | enhancement of IL-12p70 production in DC from IL-10−/− mice ([12]; data not shown): retained | IL-10 production from CpG-ODN- or LPS-stimulated DC [12]: suppressed | IL-12p70 production from TLR ligand-stimulated DC [12]: enhanced | TLR-ligand induced ERK phosphorylation [14]: inhibited

Flagellin
IL-10 production from DC [15]: induced production | IL-12p40 production from DC [15]: induced production | IL-12p70 production from DC [15]: induced production

Pam3CSK4
IL-10 production from DC [15]: induced production | IL-12p40 production from DC [15]: induced production | IL-12p70 production from DC [15]: induced production

lipopolysaccharide [LPS]
IL-10 production from DC [15]: induced production | IL-12p40 production from DC [15]: induced production | IL-12p70 production from DC [15]: induced production | time for which LPS-induced ERK phosphorylation was still evident ([14]; LPS 100 ng/ml, 0.5-12 h): up to 8 hours | time of maximal LPS-induced ERK phosphorylation ([14]; LPS 100 ng/ml, 0.5-12 h): 30 min | KLH-specific IFN-gamma production [16]: high concentrations | KLH-specific IL-4 production [16]: low or undetectable
